{"source": "patent US8747830B2", "about": "“Wound repair composition and method” (Queensland University of Technology, priority 2007, dated 2014)", "tested_on": "MMP's (particularly MMP-9) in chronic wound fluid", "settings": "inhibitor 2 mM, 37° C., 24 hours; % of untreated control remaining", "method": "Collagenase sensitivity was identified as clear bands against a dark background in zymograms and could be quantitated by densitometric analysis. […] Lanes 1-6 are chronic wound fluid samples from six different patients with 500 ng of total protein loaded per sample. […] Electrophoresis was performed at 4° C. under Laemmli conditions. […] After incubation the gels were stained appropriately and protease activity was visualised as clear (unstained) bands."}
{"smiles": "C=C(C)C(=O)NCCCC(O)(P(=O)(O)O)P(=O)(O)O", "note": "[alendronate-methacrylate conjugate]", "values": [{"measurement": "type I collagen degradation relative to that seen in the untreated control (densitometry, FIG. 4)", "result": "30%-40%"}]}
